Source: PMC5424146, “Activity-based protein profiling as a robust method for enzyme identification and screening in extremophilic Archaea” (Nature Communications, 2017)

What was measured:
[1] = molecular target: T1, TM_1022 (Thermotoga maritima, UniProt G4FEX6); assay: halo on indicator plate, double knockout expressing TM_[…]; assay type: cell-based; details: 1% (v/v) in plate; 78 °C; up to 3 days
T1 construct: gene with own promoter (about 500 bp upstream; pSVA-p-tm1022) in S. acidocaldarius esterase double knockout
T1 sequence (G4FEX6 1-253): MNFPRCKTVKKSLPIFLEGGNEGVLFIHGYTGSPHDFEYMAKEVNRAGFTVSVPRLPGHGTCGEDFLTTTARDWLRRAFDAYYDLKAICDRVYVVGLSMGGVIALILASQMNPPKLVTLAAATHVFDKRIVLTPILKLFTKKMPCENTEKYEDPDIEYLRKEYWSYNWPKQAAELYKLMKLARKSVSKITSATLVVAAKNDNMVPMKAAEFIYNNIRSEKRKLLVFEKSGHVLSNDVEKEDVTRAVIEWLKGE

[2] = molecular target: T2, acetylesterase Saci_1116 (1116) (Sulfolobus acidocaldarius, UniProt Q4J9R2); assay: esterase activity, pNP-octanoate hydrolysis at […] nm, lysate of delta […] strain; assay type: biochemical; details: pNP-octanoate 0.5 mM; pH 8.0; 35 °C; pre-incubation 1 h at 60 °C; covalent
T2 construct: full gene under the maltose promoter (pSVA-saci_1116) in the esterase double knockout, or native protein in the delta 1105 strain
T2 sequence (Q4J9R2 1-305): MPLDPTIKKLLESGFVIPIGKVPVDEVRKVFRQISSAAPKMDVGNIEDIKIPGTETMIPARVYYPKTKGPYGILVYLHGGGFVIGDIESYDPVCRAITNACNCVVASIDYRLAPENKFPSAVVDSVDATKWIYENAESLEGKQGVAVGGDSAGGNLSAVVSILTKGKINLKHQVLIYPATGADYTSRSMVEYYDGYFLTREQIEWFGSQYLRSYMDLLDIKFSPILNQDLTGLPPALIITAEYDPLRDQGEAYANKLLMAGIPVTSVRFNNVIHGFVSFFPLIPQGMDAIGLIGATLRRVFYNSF

[3] = molecular target: T1, TM_1022; assay: esterase activity, pNP-octanoate hydrolysis, lysate of double knockout expressing TM_[…]; also competitive labelling at […]; assay type: biochemical; details: pNP-octanoate 0.5 mM; pH 8.0; 35 °C; pre-incubation 1 h at 60 °C; covalent
[4] = molecular target: T3, esterase/lipase Saci_1105 (1105) (Sulfolobus acidocaldarius, UniProt Q4J9S2); assay: biochemical
T3 construct: full gene under the maltose promoter (pSVAmZ-saci_1105) in S. acidocaldarius esterase double knockout; crude lysate or living cells
T3 sequence (Q4J9S2 1-306): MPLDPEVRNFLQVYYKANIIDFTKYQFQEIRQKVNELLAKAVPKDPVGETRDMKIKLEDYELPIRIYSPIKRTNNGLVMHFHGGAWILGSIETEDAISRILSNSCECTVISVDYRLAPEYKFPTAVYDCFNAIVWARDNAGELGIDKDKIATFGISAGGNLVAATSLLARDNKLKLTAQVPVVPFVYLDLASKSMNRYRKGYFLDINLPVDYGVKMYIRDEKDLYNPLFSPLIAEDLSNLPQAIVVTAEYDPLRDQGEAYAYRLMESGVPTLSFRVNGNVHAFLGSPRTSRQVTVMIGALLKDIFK

How did the “halo on indicator plate, double knockout expressing TM_1022” value [1] turn out when `CCCCCC(=O)OCC(COC(=O)CCCCC)OC(=O)CCCCC` [tricaproin] was run?
Its value is “the halo for the tricaproin substrate was thereby slightly larger than for tributyrate”.

For `CCOP(=O)(OCC)Oc1ccc([N+](=O)[O-])cc1` [paraoxon], which “reduced activity at 250 μM” value [2] is on record?
The value was “pre-incubation with paraoxon led in all cases to a significantly reduced esterase activity”.

What about the “reduced activity at 250 μM” value [3] of the same compound?
Its value is “pre-incubation with paraoxon led in all cases to a significantly reduced esterase activity”.

How did the IC50 [4] turn out when `C#CCNC(=O)OCCOCCOCCOCCP(=O)(OCC)Oc1ccc([N+](=O)[O-])cc1` (centres unmarked) [compound 2, NP≡] was run?
The IC50 was 150 nM.

How did the “halo on indicator plate, double knockout expressing TM_1022” value [1] turn out when `CCCC(=O)OCC(COC(=O)CCC)OC(=O)CCC` [tributyrin] was run?
The value was “For both substrates, a time-dependent formation of a halo could be observed for this culture”.
